{
  "source": "patent US7605184B2",
  "about": "“Method of anesthesia” (priority 2008, dated 2009)",
  "key": {"[1]": {"assay": "degradation by wet (normal) carbon dioxide absorbents at 40° C., gas chromatography", "type": "physicochemical", "conditions": "for % Degraded per Minute: 100 mL anesthetic", "description": "Nine milligrams of the compound of formula (1) were placed in each of three 600 ml flasks containing 100 g of soda lime and maintained at 40° C. The 40° C. temperature is chosen to mimic that generated by the exothermic reaction of carbon dioxide with absorbent in a system wherein all gases are rebreathed. Soda lime contains sodium hydroxide as well as approximately 80% calcium hydroxide. A control flask contained the compound of formula (1) but no soda lime. Samples were taken at various timepoints and analyzed by gas chromatography using a flame ionization detector. […] It will be noted that the Y-axis is on a log scale so that the depletion is quite dramatic.\nThe procedure was identical to that of Example 1 except that an absorbent containing only calcium hydroxide as the base was used. This absorbent is marketed under the trademark Amsorb®.\nThe dramatic decrease in degradation with substitution of Amsorb® for soda lime applies to other absorbents that are composed of calcium hydroxide but contain minimal or no monovalent bases, LoFloSorb® and Drägersorb® Free. The general procedure of Example 1 was repeated using these two commercially available absorbents. […] All studies were conducted at 40° C. In all cases, the absorbents were “wet” (contained approximately 15% water by weight). The data in the table were obtained using the protocol set forth above wherein 100 g of absorbent was placed in a 600 mL flask, and 100 mL of anesthetic at the indicated concentration was inserted. Each study was done in triplicate. […] Values for % degraded per minute are given as the average and standard deviation (SD)."}, "[2]": {"assay": "degradation by desiccated (dry) carbon dioxide absorbents at 40° C.", "type": "physicochemical", "conditions": "for % Degr Per min: 40° C.", "description": "Drying was accomplished by placing wet absorbent in a large flask receiving 1-1.5 L/min of oxygen (dry; no water vapor) for 4 days. The flask rested in an incubator at 50° C. The absorbent contained in the flask was weighed repeatedly (to essentially constant weight loss).\nAs above, all studies were conducted at 40° C. Desiccated (dry) absorbent (grams indicated) was placed in a 600 mL flask, and 100 or 200 mL of anesthetic at the indicated concentration was inserted. […] Values for % degraded per minute are given as the average and standard deviation (SD)."}, "[3]": {"conditions": "currently used anesthetics; cited from earlier work"}, "[4]": {"conditions": "Strum et al. 1987; cited from earlier work"}, "mice": {"test_system": "mice", "assay": "loss of righting reflex in mice", "type": "in vivo", "conditions": "four mice, closed system with Amsorb, rectal temperature 30° C. (hypothermic)", "excerpt": "(§1) Clearly another significant property of an anesthetic is its ability to effect anesthesia in the first place. […] The minimum alveolar concentration of anesthetic at which 50% of subjects move in response to a noxious stimulus is designated “MAC.” In the case of 30-60 year old adult humans, the MAC values are 0.06 atm (i.e., 6%) for desflurane, 0.0115 atm (1.15%) for isoflurane and 0.0185 atm (1.85%) for sevoflurane). An alternative measurement similar to MAC that is based on the righting reflex in mice gave a value for the compound of formula (1) of 0.05 atm (5%). The value obtained in this alternative assay approximates but is usually a bit less than MAC.\nIn a closed system employing Amsorb® as the absorbent, four mice were anesthetized using the compound of formula (1). The righting reflex was lost at 3.22±0.54% of formula (1). The rectal temperature of the mice at the end of this experiment was 30° C. which is hypothermic for mice. Hypothermia decreases anesthetic requirement (Eger, E. I. II and Johnson, B. H.; Anesth Analg (1987) 66:974-976), and thus this experiment probably underestimated the concentration producing the loss of righting reflex."}, "mice and rats": {"test_system": "mice and rats", "assay": "recovery, CNS irritation and survival after anesthesia in mice and rats", "type": "in vivo"}, "murine models": {"test_system": "murine models", "conditions": "cited from earlier work"}, "[5]": {"assay": "blood/gas partition coefficient", "type": "physicochemical", "excerpt": "One highly desirable property of an inhaled anesthetic is that it permits rapid recovery once the administration of the anesthetic is halted. Typically, during surgical procedures, the subject is continuously administered the anesthetic, and it is helpful if the subject can recover as quickly as possible as soon as administration is stopped. The length of time required for such recovery is a function of the solubility of the anesthetic in the blood, which mimics solubility in the brain. Thus, anesthetics with very low blood/gas partition coefficients are highly desirable. The blood/gas partition coefficient for desflurane is 0.45; for sevoflurane is 0.65 and for isoflurane is even higher. The blood/gas partition coefficient for the compound of formula (1) is only 0.21, making it highly advantageous as permitting more rapid recovery than any of the currently used anesthetics."}, "rats": {"test_system": "rats", "assay": "MAC in rats", "type": "in vivo", "conditions": "five rats, 37° C. (normothermic)", "excerpt": "as §1\nIn an additional experiment, conducted at 37° C. which is normothermic, five rats were anesthetized using the compound of formula (1) and the MAC value found was 8.34±0.84%."}, "[6]": {"conditions": "dry Amsorb 100 g, 100 mL injected"}, "[7]": {"conditions": "dry Drägersorb Free 25 g, 100 mL injected"}, "[8]": {"conditions": "dry LoFloSorb 25 g, 100 mL injected"}, "[9]": {"conditions": "dry LoFloSorb 50 g, 200 mL injected"}},
  "note": "Read-outs that look alike come from different tables or passages of the source.",
  "data": [
    {"smiles": "FCOC(C(F)(F)F)C(F)(F)F", "note": "[Sevoflurane, sevoflurane, reference compound]", "values": [
      {"measurement": "% Degraded per Minute", "setting": "[1]; wet Drägersorb Free 100 g", "result": "−0.058", "unit": "%"},
      {"measurement": "% Degr Per min", "setting": "[2]; [6]", "result": 5.01, "unit": "%"},
      {"measurement": "% Degr Per min", "setting": "[2]; [7]", "result": 0.52, "unit": "%"},
      {"measurement": "% Degr Per min", "setting": "[2]; [8]", "result": 38.5, "unit": "%"},
      {"measurement": "blood/gas partition coefficient", "setting": "[3]", "result": 0.65},
      {"measurement": "degradation in soda lime", "setting": "[4]", "result": 13, "unit": "% per hour"}
    ]},
    {"smiles": "FC(F)OC(C(F)(F)F)C(F)(F)F", "note": "[Formula (1), CHF2—O—CH(CF3)2]", "values": [
      {"measurement": "degradation in flasks containing soda lime (FIG. 2)", "setting": "[1]; 9 mg, 100 g soda lime, 600 ml flask, after 30 min", "result": "essentially complete degradation"},
      {"measurement": "percentage of compound in the flask (FIG. 3)", "setting": "[1]; 100 g Amsorb (calcium hydroxide only), 30 min interval", "result": "remained constant"},
      {"measurement": "% Degraded per Minute", "setting": "[1]; wet Amsorb 100 g", "result": "−0.05", "unit": "%"},
      {"measurement": "% Degraded per Minute", "setting": "[1]; wet Drägersorb Free 100 g", "result": 0.102, "unit": "%"},
      {"measurement": "% Degraded per Minute", "setting": "[1]; wet LoFloSorb 100 g", "result": 0.2, "unit": "%"},
      {"measurement": "% Degraded per Minute", "setting": "[1]; wet Soda Lime 100 g", "result": 25.0, "unit": "%"},
      {"measurement": "concentration at which the righting reflex was lost", "setting": "mice", "result": "3.22±0.54", "unit": "%"},
      {"measurement": "survival", "setting": "mice and rats; 24 hours after anesthesia, mice and rats", "result": "All survived for 24 hours in apparent good health"},
      {"measurement": "time to awake after administration of the anesthetic was stopped", "setting": "mice and rats; mice and rats", "result": "2 to 3", "unit": "min"},
      {"measurement": "irritation of the central nervous system", "setting": "mice and rats; mice and rats anesthetized", "result": "In neither of these cases was there irritation of the central nervous system"},
      {"measurement": "% Degr Per min", "setting": "[2]; dry Amsorb 20 g, 100 mL injected", "result": 0.7, "unit": "%"},
      {"measurement": "% Degr Per min", "setting": "[2]; [6]", "result": 2.7, "unit": "%"},
      {"measurement": "rate of degradation on repeated addition of anesthetic (FIG. 4)", "setting": "[2]; dry Amsorb, three flasks, repeated additions", "result": "progressively decreased"},
      {"measurement": "% Degr Per min", "setting": "[2]; [7]", "result": 0.28, "unit": "%"},
      {"measurement": "% Degr Per min", "setting": "[2]; [8]", "result": 55.0, "unit": "%"},
      {"measurement": "% Degr Per min", "setting": "[2]; [9]", "result": 40.7, "unit": "%"},
      {"measurement": "anesthetic quality", "setting": "murine models; Speers et al., J. Med. Chem. 1971", "result": "good anesthetic"},
      {"measurement": "side effects", "setting": "murine models; murine models, Speers et al. 1971", "result": "undesirable side effects"},
      {"measurement": "blood/gas partition coefficient", "setting": "[5]", "result": 0.21},
      {"measurement": "MAC value", "setting": "rats", "result": "8.34±0.84", "unit": "%"}
    ]},
    {"smiles": "FC(F)OC(F)C(F)(F)F", "note": "(centres unmarked) [Desflurane, desflurane, reference compound]", "values": [
      {"measurement": "% Degr Per min", "setting": "[2]; dry Amsorb 50 g, 100 mL injected", "result": "−0.1", "unit": "%"},
      {"measurement": "% Degr Per min", "setting": "[2]; [9]", "result": 0.5, "unit": "%"},
      {"measurement": "blood/gas partition coefficient", "setting": "[3]", "result": 0.45}
    ]}
  ]
}
